Data: US10822317B2, “Methods and compositions for wound healing” (QBiotics Limited, priority 2013, dated 2020)

What was measured:
[1] = tested on: human neonatal fibroblasts; assay: Matrigel invasion assay for migratory ability; format: cell-based; conditions: 30 ng/mL; 24 hrs; fibroblasts starved 2 days, 1% foetal calf serum; ± standard deviation, two replicate experiments
Text: Matrigel invasion chambers provide cells with the conditions that allow assessment of their invasive property in vitro. The Matrigel invasion chambers consists of a cell culture companion plate with cell culture inserts containing an 8 micron pore size PET membrane with a thin layer of Matrigel Basement Membrane Matrix. The Matrigel matrix serves as a reconstituted basement membrane in vitro. The layer occludes the pores of the membrane, blocking non-invasive cells from migrating through the membrane. In contrast, invasive cells are able to detach themselves from and invade through the Matrigel matrix and the 8 micron membrane pores. The membrane may be processed for light and electron microscopy and can be easily removed after staining.
The chambers were used according to the manufacturer's instructions, as described below in two studies, to assess the effects of Compounds 1, 2, 5 and 42 on migration of human neonatal fibroblasts. The first study assessed effects of three concentrations (0, 10 and 30 ng/mL) of Compound 1 on neonatal fibroblasts in wells containing media with 10% foetal calf serum. The second study used two concentrations (0 and 30 ng/mL) for each of Compounds 1, 2, 5 and 42 to examine effects on migration of neonatal fibroblasts starved for 2 days prior to treatment and then transferred to media with 1% foetal calf serum.
The package containing the chambers was removed from −20° C. storage and allowed to come to room temperature. Warm (37° C.) bicarbonate based culture medium was added to the interior of the inserts (500 μL) and bottom of wells (750 μL). The chambers containing the Matrigel were allowed to rehydrate for 2 hours in humidified tissue culture incubator, 37° C., 5% CO2 atmosphere. After rehydration, the medium was carefully removed by aspiration without disturbing the layer of Matrigel™ Matrix on the membrane.
Cells were harvested, and resuspended at 20,000 cells per mL. A total of 250 μL of the cell suspension was placed into the interior of the insert (5,000 cells). An extra 250 μL media containing the respective Compounds was then added to the interior of the insert to give the desired final concentrations for each of the two studies. A total of 750 μL of media containing appropriate concentrations of each compound in each treatment were placed in the well under the appropriate insert. The Matrigel chambers were then incubated for 24 hours in a humidified tissue culture incubator, at 37° C., 5% CO2 atmosphere.
Non-invading cells were removed from the upper surface of the membrane by “scrubbing”. A cotton tipped swab was dipped into the insert after removal of the media, and firm pressure applied while the tip was moved over the membrane surface. The scrubbing was repeated with a second swab moistened with PBS. Cells that had invaded to the external surface of the insert were then fixed by placing in […] of 100% methanol for at least 5 mins. Inserts were then transferred to a companion plate containing 500 μL of 0.1% crystal violet in methanol, and stained for at least 15 mins. Inserts were destained by passage through 3 companion plates containing 500 μL water, before being air dried.
The following day, the membrane was removed from the insert housing by inverting the insert and inserting the tip of a sharp scalpel blade through the membrane at the edge adjacent to the housing wall. The insert housing was rotated against the stationary blade and the membrane was released. […]

[2] = tested on: human peripheral blood monocytes; assay: Differentiation of monocytes into macrophages; format: cell-based; conditions: 10-fold dilutions; 4 days; adherence and morphology
Method: To determine potential effects of Compound 1 and fifteen other epoxy-tigliane compounds in the array on monocyte differentiation, human peripheral blood mononuclear cells (PBMCs) were isolated by Ficoll-Paque sedimentation of heparinised blood from a human donor, and plated at 100,000 cells/well in RPMI-1640 10% FCS. Duplicate wells were treated with 10-fold dilutions of the compounds and incubated at 37° C. for 4 days. The wells were scored visually for cell attachment and morphology, then washed twice with PBS, stained with sulfurhodamine and the incorporate stain quantitated in an ELISA reader. The plates were then washed with water and stained with 1% crystal violet in methanol for photography and scoring of adherent cell morphology.

[3] = tested on: human neonatal fibroblasts; assay: Scratch closure, human neonatal fibroblasts, Method 3 (IncuCyte); format: cell-based
Method: (§1) The ability of early. passage neonatal foreskin fibroblasts (NFF) cultured in RPMI 1640-10% foetal calf serum to migrate across a scratch wound made in a confluent monolayer following treatment with purified compounds or plant extracts was determined using one or more of the following three methods.
Cells were seeded and treated in 96-well plates as in Method 2 (5 replicate wells per dilution), except that the scratches were made in one action with a tool having 96, 1 mm thick teflon coated pins (Essen Bioscience Woundmaker). The plate was then placed in a 37° C., 5% CO2 humidified atmosphere in an IncuCyte FLR instrument programmed to photograph each well under phase contrast at 3 hr intervals for 42 hours. The software determined the initial scratch boundaries and their rate of closure. Accelerated wound closure was considered to be significant if the initial rate of closure was >10% of the untreated controls.

[4] = tested on: human peripheral blood mononuclear cells (PBMCs); assay: Cytokine production by PBMCs (Cytometric Bead Array); format: cell-based; conditions: 24 hr, ± standard deviation
Text: Specific cytokines play critical roles in wound healing processes, and agents that modulate these substances may be useful in treating wounds and/or improving the cosmetic outcomes of healing (e.g. reduced scarring). The effects of Compounds 1, 2, 5 and 42 on regulation of four cytokines (IL-1β, IL-6, IL-8 and TNFα) known to be critical in early stages of the wound healing process were investigated in human peripheral blood mononuclear cells (PBMCs).
PBMCs were isolated by Ficoll-Paque sedimentation of heparinised blood acquired from both a person (Donor 1) and (Donor 2) human donor. All cells were cultured in 10% FCS, RPMI as detailed previously.
PBMCs were seeded at a density of 1.5×10^5 cells per well in 10% FCS, RPMI. Stimulation of these cells with the four compounds was performed at four concentrations (0 ng/mL, 3 ng/mL, 30 ng/mL, 300 ng/mL) in duplicate for 24 h in a humidified incubator at 37° C., 5% CO2. Media samples were taken from each of the required wells and frozen at −80° C. until use.
Cytometric Bead Array (CBA) assays were used to measure the results. CBA assays provide a method for capturing a soluble analyte or set of analytes using antibody coated beads of known sizes and fluorescence. Detection is then performed using another fluorescently labelled secondary antibody to form a sandwich complex. Each media sample was assayed for the presence of soluble […], IL-6, IL-8, IL-10, IL-12p70 and TNFα using a BD (Becton Dickinson) CBA Human Inflammatory Cytokine Detection Kit according to manufacturers' instructions. Mean fluorescence intensity values from each sample were compared against a standard curve to determine cytokine concentrations (pg/mL).

mouse skin = assay: Acute inflammatory response in mouse skin; format: in vivo; conditions: male nude mice, s.c. 50 μL of 100 μg/mL; for scarring of the healed site: 14 days; for diameter of affected area of skin: by 24 hr
Method: Male nude mice were injected subcutaneously on each flank with 50 μL of solutions of 100 μg/mL of Compounds 1, 2, 5 and 42 respectively in 20% propylene glycol. Each site reddened within 4 hr and by 24 hr the affected area covered approximately 1 cm diameter of skin.

[5] = tested on: human neonatal fibroblasts; assay: Scratch closure, human neonatal fibroblasts, Method 2; format: cell-based
Method: as §1
Cells were seeded in 6 mm wells (96-well plates) or 16 mm (24-well plates), with 2 to 6 replicate wells/dilution, and treated as in Method 1. Immediately after treatment, the scratch edges were outlined on the underside of the well with a fine point felt pen. After fixing and staining, migration was assessed under the microscope with the aid of a graticule, scoring migration as 0, 25, 50, 75 or 100% (total closure) of the initial width. Accelerated wound closure was considered to be significant if mean quartile of replicates was […] that of untreated controls (p<0.05, t-test). In addition, “wound” areas were created by seeding cells in the presence of 3 mm stainless steel pins (96-well plate), or by inserting flat-edged Teflon rings. These devices were removed after overnight incubation of the NFF cells.

Molecule	Cell count as % of control (Control = no compounds added) [1]	Differentiation endpoint (endpoint concentration in dilution series for induction of macrophage phenotype) [2]	IL-1β level ([4]; Donor 1, 3 ng/mL)	IL-6 level ([4]; Donor 1, 3 ng/mL)	IL-8 level ([4]; Donor 1, 3 ng/mL)	TNFα level ([4]; Donor 1, 3 ng/mL)	IL-1β level ([4]; Donor 1, 30 ng/mL)	IL-6 level ([4]; Donor 1, 30 ng/mL)	IL-8 level ([4]; Donor 1, 30 ng/mL)	TNFα level ([4]; Donor 1, 30 ng/mL)	IL-1β level ([4]; Donor 1, 300 ng/mL)	IL-6 level ([4]; Donor 1, 300 ng/mL)	IL-8 level ([4]; Donor 1, 300 ng/mL)	TNFα level ([4]; Donor 1, 300 ng/mL)	IL-1β level ([4]; Donor 2, 3 ng/mL)	IL-6 level ([4]; Donor 2, 3 ng/mL)	IL-8 level ([4]; Donor 2, 3 ng/mL)	TNFα level ([4]; Donor 2, 3 ng/mL)	IL-1β level ([4]; Donor 2, 30 ng/mL)	IL-6 level ([4]; Donor 2, 30 ng/mL)	also measured
CCCCCC(=O)OC1C(C)C2(O)C(C3OC3(CO)C(O)C3(O)C(=O)C(C)=CC32)C2C(C)(C)C12OC(=O)C(C)CC (centres unmarked) [Compound 5, 12-hexanoyl-13-(2-methylbutanoyl)-6,7-epoxy-4,5,9,12,13,20-hexahydroxy-1-tigliaen-3-one]	218 ± 21%	1 ng/mL	2.1 ± 0.1 pg/mL	12.4 ± 0.2 pg/mL	4924 ± 366 pg/mL	85.8 ± 8.4 pg/mL	15.7 ± 0.9 pg/mL	33.6 ± 0.6 pg/mL	17190 ± 55 pg/mL	289.9 ± 18.6 pg/mL	44 ± 1.6 pg/mL	77.5 ± 9.1 pg/mL	17275 ± 40 pg/mL	306.4 ± 9.0 pg/mL	8.1 ± 2.8 pg/mL	14.9 ± 1.1 pg/mL	4765 ± 999 pg/mL	53.9 ± 9.0 pg/mL	43.6 ± 6.1 pg/mL	12.5 ± 1.2 pg/mL	% closure compared to control ([3]; 30 ng/mL): 209%; % closure compared to control ([3]; 200 ng/mL): 300%; IL-8 level ([4]; Donor 2, 30 ng/mL): 26288 ± 260 pg/mL; TNFα level ([4]; Donor 2, 30 ng/mL): 223 ± 11.2 pg/mL; IL-1β level ([4]; Donor 2, 300 ng/mL): 114.9 ± 2.4 pg/mL; IL-6 level ([4]; Donor 2, 300 ng/mL): 51.9 ± 1.3 pg/mL; IL-8 level ([4]; Donor 2, 300 ng/mL): 33870 ± 2532 pg/mL; TNFα level ([4]; Donor 2, 300 ng/mL): 620.9 ± 66.5 pg/mL; scarring of the healed site (mouse skin): minimal scarring; diameter of affected area of skin (mouse skin): approximately 1 cm
CCCC(=O)OC1C(C)C2(O)C(C3OC3(CO)C(O)C3(O)C(=O)C(C)=CC32)C2C(C)(C)C12OC(=O)C(C)CC (centres unmarked) [Compound 8, 12-butanoyl-13-(2-methylbutanoyl)-6,7-epoxy-4,5,9,12,13,20-hexahydroxy-1-tigliaen-3-one]		10 ng/mL																			% closure compared to control ([5]; 200 ng/mL): 190%
12,13-di-hexanoyl-6,7-epoxy-4,5,9,12,13,20-hexahydroxy-1-tigliaen-3-one [Compound 42]	350 ± 101%	1 ng/mL	2.6 ± 0.6 pg/mL	8.1 ± 6.4 pg/mL	3013 ± 377 pg/mL	45.8 ± 55.2 pg/mL	16.8 ± 1.2 pg/mL	32.1 ± 6.7 pg/mL	16389 ± 884 pg/mL	271.9 ± 22.4 pg/mL	41.3 ± 1.2 pg/mL	71 ± 4.6 pg/mL	17425 ± 680 pg/mL	267.5 ± 11.9 pg/mL	21.7 ± 7.5 pg/mL	30.4 ± 11.8 pg/mL	7885 ± 2516 pg/mL	109.5 ± 29.3 pg/mL	71.2 ± 6.0 pg/mL	23.6 ± 0.8 pg/mL	IL-8 level ([4]; Donor 2, 30 ng/mL): 28176 ± 37 pg/mL; TNFα level ([4]; Donor 2, 30 ng/mL): 354.2 ± 6.3 pg/mL; IL-1β level ([4]; Donor 2, 300 ng/mL): 137.8 ± 10.9 pg/mL; IL-6 level ([4]; Donor 2, 300 ng/mL): 69.3 ± 1.8 pg/mL; IL-8 level ([4]; Donor 2, 300 ng/mL): 32925 ± 552 pg/mL; TNFα level ([4]; Donor 2, 300 ng/mL): 631.6 ± 16.9 pg/mL; scarring of the healed site (mouse skin): minimal scarring; diameter of affected area of skin (mouse skin): approximately 1 cm
12,13-dibutanoyl-6,7-epoxy-4,5,9,12,13,20-hexahydroxy-1-tigliaen-3-one [Compound 27]																					% closure compared to control ([5]; 1000 ng/mL): 158%; % closure compared to control ([3]; 2000 ng/mL): 130%
